From paper PMC11596155, “When Chirality Makes the Difference: The Case of Novel Enantiopure N-Heterocyclic Carbene–Gold and –Silver Complexes” (Molecules, 2024) come the findings set out here.

In series [1] the test system is NO production in LPS-stimulated RAW 264.7 macrophages (iNOS). Put plainly: Griess assay, NO production in LPS-stimulated RAW 264.7 macrophages. It is filed as cell-based, murine. The settings on record: 24 h, LPS 1 µg/mL, RAW 264.7, vs LPS only. An excerpt:
Inflammation is an important process, in which the immune system is activated, allowing the protection from infections by eliminating pathogens and promoting repairing phenomena. However, in some cases, the inflammation can become chronic, playing a key role in several diseases, such as cancer, diabetes, autoimmune and neurodegenerative disorders. Moreover, chronic inflammation is characterized by a proliferation of different specialized cells, for instance macrophages, fibroblasts, granulocytes and so on. […] NO is produced by nitric oxide synthases (NOS) isoforms, but under different pro-inflammatory stimuli (cytokines or microbial products) it is massively produced by the inducible NOS (iNOS, NOS2; or type II NOS). iNOS can be also overexpressed in several diseases, producing NO in an unregulated manner and contributing to the disease progression. For these reasons, its inhibition represents a good strategy for the treatment of various diseases related to chronic inflammation, amongst them cancer. The anti-inflammatory activity, in terms of NO production inhibition, of the new synthesized chiral complexes was evaluated by the means of a Griess-based assay. Particularly, the NO production was induced in murine macrophages RAW 264.7 stimulated with bacterial lipopolysaccharide (LPS), then they were exposed to the complexes for 24 h and the released NO was quantified (as detailed in the Section 3). […] Therefore, pro-ligands P1 and P2, as R and S pure enantiomers, were tested. The obtained outcomes are visible in Figure 2 (panels A and B, P1 and P2 series, respectively), where it is possible to notice “at glance” that most of the enantiopure compounds were unable to decrease the NO synthesis, induced by LPS treatment in RAW 264.7 macrophages (see pink bars in the graph), with the exception of (R)-AuL1 and (R)-AuL2. Particularly, (R)-AuL1 was able to decrease, dose-dependently, the NO production of about 23 and 35% at 5 and 10 µM, respectively, whereas the S enantiomer was unable to reduce NO, under the same experimental conditions. […] Furthermore, none of the pro-ligands was found able to decrease NO production. […] Finally, viability assays were performed on RAW 264.7 macrophages, recovered after the Griess test.
Anti-inflammatory activity was tested adopting the Griess assay on RAW 264.7 murine macrophages, by measuring NO production, as reported by. Specifically, RAW 264.7 cells were plated on 48 multi-wells and treated with the tested molecules at the indicated concentrations; lipopolysaccharide (LPS, Sigma Aldrich, Milan, Italy), at a final concentration of 1 µg/mL, was used to induce inflammation and stimulate NO production. After 24 h, the cell medium and Griess reagent were mixed at a 1:1 ratio and left under agitation for 30 min, at room temperature. Then, absorbance was measured at 540 nm, using a multiplate reader. The absorbance obtained allowed to assess the percentage of NO production compared with the positive control, in which the cells have been treated with LPS.
Figure 2 Panel (A), L1 series and panel (B), L2 series. Anti-inflammatory activity (pink bars): NO production was induced in murine macrophages RAW 264.7 treated with LPS (1 µg/mL), in presence or not of the enantiopure complexes and pro-ligands at the indicated concentrations (µM), for 24 h. Indomethacin (Ind) was used as the reference molecule. Data were plotted as % NO inhibition with respect to LPS-only treatment. […]
A general note: The Griess reaction detects nitrite, a stable product of nitric oxide.

Another series has as its system MCF-7 cells. Put plainly: MTT assay, anticancer activity, MCF-7. It counts as cell-based, human. The settings on record: 72 h, mean ± SD of three experiments. The method, then:
(§1) All cell lines used for the reported studies were purchased from the American Type Culture Collection (ATCC, Manassas, VA, USA). Human breast cancer cells MCF-7 and MDA-MB-231 were maintained in Dulbecco’s Modified Eagle Medium/Nutrient Mixture F12 Ham (DMEM/F12) supplemented with 5% fetal bovine serum (FBS), 1% L-glutamine and 100 units/mL of penicillin/streptomycin. Human mammary epithelial cells MCF-10A were cultured in DMEM/F12 medium, supplemented with 5% horse serum (HS), 100 units/mL of penicillin/streptomycin, […], 0.02 µg/mL human epidermal growth factor (EGF), 10 µg/mL insulin and […] [34]. The murine macrophages RAW 264.7 were grown in Dulbecco’s Modified Eagle’s Medium (DMEM) high glucose (4.5 g/L), added with 10% fetal bovine serum (FBS), 1% L-glutamine and 100 units/mL of penicillin/streptomycin. Cells were maintained at 37 °C, in a humidified atmosphere containing 5% CO2.
(§2) Cell viability was determined using the 3-(4,5-dimethylthiazol-2-y1)-2,5-diphenyltetrazolium bromide assay (MTT, Sigma-Aldrich, Milan, Italy), as in [35]. Cells were treated for 72 h (anticancer activity) or 24 h (anti-inflammatory activity) at different concentrations and the IC50 values were obtained using GraphPad Prism 9 software (GraphPad Software, La Jolla, CA, USA).
For orientation: Tetrazolium dyes change colour on reduction, which living cells bring about.

The next series relates to MDA-MB-231 cells. Put plainly: MTT assay, anticancer activity, MDA-MB-231. It counts as cell-based, human. Particulars: 72 h, mean ± SD of three experiments. The protocol:
as §1, §2

For a further series, the system named is MCF-10A cells. Nature of the series: MTT assay, cytotoxicity on normal mammary epithelial cells MCF-10A. It counts as cell-based, human. Particulars: 72 h; for IC50: normal cells, mean ± SD of three experiments. The protocol:
as §1, §2

For series [2], the system named is Escherichia coli (ATCC 25922). Nature of the series: MIC and MBC by broth dilution, E. coli. It counts as cell-based. Particulars: broth dilution, overnight 37 °C. The source says: (§3) The bacterial strains used for MIC and MBC value determinations expressed as µg/mL by the broth dilution method, according to CLSI guidelines, were the following: Gram-negative: Escherichia coli (ATCC® 25922TM); Gram-positive: Staphylococcus aureus (ATCC® 23235TM). The MIC represents the lowest concentration of compound able to inhibit the visible microbial growth, expressed in μg/mL, whereas the MBC is the lowest concentration of a given compound that can completely kill the bacteria. Bacteria were grown overnight in LB medium (2%), diluted at a density of […] colony forming units (CFUs/mL), plated in the 96-well microplates to obtain a total inoculum load of ca. 10^5 cells/well and then treated with increasing concentrations of the tested complexes (1, 5, 10, 20, 50, 100, 200 μg/mL). Successively, after incubation at 37 °C overnight, the bacterial growth was monitored at a wavelength of 600 nm using a Multiskan spectrophotometer (Multiskan Ex Microplate model; Thermo Scientific, Nyon, Switzerland). MIC or MBC values were obtained by comparing cell density with a positive control (bacterial cells grown in LB medium were added with only the vehicle, DMSO). The results were representative of three independent experiments performed in triplicate and ampicillin (Sigma Aldrich A9393) was used as the control for strain sensitivity.
(In broth dilution the organism is exposed to a series of concentrations in liquid medium.)

Series [3] relates to Staphylococcus aureus (ATCC 23235). Put plainly: MIC and MBC by broth dilution, S. aureus. The settings on record: broth dilution, overnight 37 °C. It counts as cell-based.
Description: as §3

`CN1C=CN(C[C@H](O)c2ccccc2)[CH]1[Au-][Cl]` (stereo partly drawn) [(R)-AuL1, (1-((R)-2-hydroxy-2-phenylethyl)-3-methyl-2,3-dihydro-1H-imidazol-2-yl)gold(I) chloride]: the “decrease of NO production” value in series [1] (5 µM) was “about 23%”; in series [1] (10 µM), roughly 35%. Further, the results for the IC50 with MCF-7 cells, in the series on MDA-MB-231 cells and in the series with MCF-10A cells were 16 ± 0.8 µM, 15.3 ± 4.5 µM and 52.9 ± 2.2 µM, respectively. In addition, the “M.B.C. E. coli” value in series [2] is greater than 150 µg/mL. For the same compound, the “M.I.C. E. coli” value in series [2] is 75 µg/mL. In addition, the “M.B.C. S. aureus” value in series [3] is recorded as greater than 150 µg/mL. For the same compound, in series [3], the “M.I.C. S. aureus” value is on record as 25 µg/mL.

Take `CN1C(Cl)=C(Cl)N(C[C@H](O)c2ccccc2)[CH]1[Au-][Cl]` (stereo partly drawn) [(R)-AuL2, (4,5-dichloro-1-((R)-2-hydroxy-2-phenylethyl)-3-methyl-2,3-dihydro-1H-imidazol-2-yl)gold(I) chloride]: the “decrease of NO production” value in series [1] (1 µM) was “about 10%”. The “decrease of NO production” value in series [1] (5 µM) is on record as roughly 50%. Also, it took 2.2 ± 0.2 µM to reach half-maximal inhibition in the series with MCF-7 cells (IC50). Further, in the series with MDA-MB-231 cells, 1.2 ± 0.2 µM corresponded to half-maximal inhibition (IC50). In the series on MCF-10A cells, the “cytotoxicity toward normal MCF-10A cells (in words)” value is “did not impact” and the midpoint of inhibition, the IC50, lay at 38 ± 2.2 µM. Moreover, in series [2], the “M.B.C. E. coli” value was greater than 150 µg/mL and the “M.I.C. E. coli” value is 75 µg/mL. Further, in series [3], the “M.B.C. S. aureus” value is reported as greater than 100 µg/mL and the “M.I.C. S. aureus” value worked out at 75 µg/mL.

Regarding `COc1ccc2c(c1)c(CC(=O)O)c(C)n2C(=O)c1ccc(Cl)cc1` [Ind, Indomethacin, reference compound], the “decrease of NO production” value in series [1] (50 µM) is on record as “about 26%”.
